Results taken from patent US10702572B2, “Methods and compounds to suppress viral genome release and packaging” (Carnegie Mellon University, priority 2015, dated 2020).

How the values were obtained:
[1] = system: HSV-1, strain DM2.1 (a resistant isolate); test: Plaque reduction assay in HFF cells; format: cell-based; conditions: Human alphaherpesvirus 1, HFF
Experimental: (§1) E-377 and DM2.1 strains of HSV-1 as well as the MS strain of HSV-2 were a gift of Jack Hill (Burroughs Wellcome). HCMV strain AD169 and VZV strain Ellen were obtained from the American Type Culture Collection (ATCC, Manassas, Va.).
(§2) Monolayers of HFF cells were prepared in six-well plates and incubated at 37° C. for 2 d to allow the cells to reach confluency. Media was then aspirated from the wells and 0.2 ml of virus was added to each of three wells to yield 20-30 plaques in each well. The virus was allowed to adsorb to the cells for 1 h and the plates were agitated every 15 minutes. Compounds were diluted in assay media consisting of MEM with Earl's salts supplemented with 2% FBS, L-glutamine, penicillin, and gentamycin. Solutions ranging from 300 μM to 0.1 μM were added to duplicate wells and the plates were incubated for various times, depending on the virus used. For HSV-1 and -2, the monolayers were then stained with 1% crystal violet in 20% methanol and the unbound dye removed by washing with dH2O. For all other assays, the cell monolayer was stained with 1% Neutral Red solution for 4 h then the stain was aspirated and the cells were washed with PBS. For all assays, plaques were enumerated using a stereomicroscope and the concentration of compound that reduced plaque formation by 50% (EC50) was interpolated from the experimental data.

HSV-2, strain G = test: Plaque reduction assay in HFF cells; format: cell-based; conditions: for EC50: reduces viral replication by 50%
VZV, strain Ellen = test: Plaque reduction assay in HFF cells; format: cell-based; conditions: for EC50: Human alphaherpesvirus 3, reduces viral replication by 50%; for EC90: Human alphaherpesvirus 3, reduces viral replication by 90%
Experimental: HCMV strain AD169 and VZV strain Ellen were obtained from the American Type Culture Collection (ATCC, Manassas, Va.).
as §2, with “PBS.” for “PBS. For all assays, plaques were enumerated using a stereomicroscope and the concentration of compound that reduced plaque formation by 50% (EC50) was interpolated from the experimental data.”
However, unlike assays for HSV-1, HSV-2, MCMV and CMV compounds (where the compound is added to cells prior to virus addition), virus particles are not used in infection in assays for VZV where latent virus in the cells is induced to undergo a lytic infection, since the virions are unstable and infected cells. Thus, in the VZV study, bPEI is added to cell solution and virus is induced from within the cell by induction of lytic infectious cycle.

in vitro = conditions: human
LD50 in rat = conditions: conversion in brackets
[2] = rat; cited from earlier work
HCMV, strain AD169 = test: Plaque reduction assay in HFF cells; format: cell-based; conditions: for EC50: reduces viral replication by 50%; for EC90: reduces viral replication by 90%
Experimental: as §1, §2

HSV-1, strain E-377 = test: Plaque reduction assay in HFF cells; format: cell-based; conditions: Human alphaherpesvirus 1, HFF; for EC50: concentration that reduces viral replication by 50%, various trials, each with its control; for EC90: concentration that reduces viral replication by 90%
Experimental: as §1, §2

cell membrane = conditions: cited from earlier work; for permeation of cell membranes: when complexed with free DNA
[3] = Parallel cytotoxicity assay in uninfected HFF cells; conditions: human
DNA [4] = test: DNA condensation, internal experimental observations, dint; format: biochemical
DNA [5] = conditions: literature values; cited from earlier work
phage λ = test: Intracapsid DNA transition temperature by ITC and SAXS; design: species or system bacteriophage λ; conditions: for DNA transition temperature T*: WT DNA phage λ
Excerpt: WT bacteriophage λ cI857, with a genome length of 48.5 kb was produced by thermal induction of lysogenic E. coli strain AE1 derived from the 52773 strain. Two phage λ mutants with shorter genome lengths (78 and 94% of the WT DNA length) were produced using a similar procedure. The receptor was the LamB protein purified from pop 154, a strain of E. coli K12 in which the LamB gene has been transduced from Shigella sonnei 3070. Phage and LamB purification details are described in Evilevitch A., et al., Osmotic pressure inhibition of DNA ejection from phage. Proc. Natl. Acad. Sci. U.S.A. 2003; 100:9292-9295 and Ivanovska I., et al., Internal DNA pressure modifies stability of WT phage. Proc. Natl. Acad. Sci. U.S.A. 2007; 104:9603-9608.
All calorimetric measurements were performed using the MicroCal iTC200 system manufactured by GE Healthcare, Life Sciences. […] J. Mol. Biol. 2010; 395:1079-1087.
Small angle X-ray scattering (SAXS) measurements were carried out at the 12-ID B station at the Advanced Photon Source at Argonne National Laboratory. A 12-KeV X-ray beam was used to illuminate the sample with an overall scattering vector q range from 0.006 to 0.850 Å-1. A total of 120 μl of phage solution (˜5×1013 pfu/ml) was injected into a flow-through glass capillary and the solution was oscillated during the SAXS measurement with a flow rate of 10 μl/s. Forty scans with 1 s X-ray exposure time were collected and averaged for each sample. A buffer solution of the dialysis buffer for phage samples was measured using the same SAXS setup, which was further subtracted as the background. After the background subtraction, the scattered intensity I versus q was plotted and the DNA peak region was truncated from 0.18 Å-1 to 0.33 Å-1. This DNA diffraction peak was fitted with a Gaussian curve plus a linear background using function (1), where q0 is the peak center, w is the peak width, A0 is the peak area, k is the slope of the linear background and c is the offset.
[formula] […] Single-Molecule Fluorescence Measurements of Phage Ejection Ensemble Kinetics.
ITC and SAXS assays were used to determine DNA transition temperatures for WT λ-DNA length phage in MgCl2 Tris-buffer with MgCl2 concentrations varied between 5 and 50 mM, see FIGS. 3A-3C. The intracapsid DNA transition occurs at temperature T*, corresponding to either a discontinuity in the linear dependence of ΔHej on temperature (FIG. 3A) or to an abrupt change in the linear decay of the DNA diffraction peak area versus temperature measured by SAXS (FIG. 3B). DNA transition temperatures as a function of Mg-concentration determined by both techniques are in good agreement with each other and are summarized in FIG. 3C. […] However, the inventors have previously shown that at DNA packing density in phage λ, the screening effect of Mg-ions will become progressively smaller with increasing Mg-concentration due to the counter-ion saturation (Evilevitch A., et al., Effects of salt concentrations and bending energy on the extent of ejection of phage genomes. Biophys. J. 2008; 94:1110-1120). Furthermore, if the Mg ion concentration continues to increase, the counterions are forced into regions on the helices that begin to increase the effective repulsions between packaged DNA strands. […]

[6] = CC50, parallel to HSV-1 DM2.1 assay
[7] = CC50, parallel to HSV-1 E-377 assay, reduces cell viability by 50%
[8] = CC50, parallel to HSV-2 strain G assay
[9] = CC50, parallel to VZV Ellen assay
[10] = Human betaherpesvirus 5, AD169, HFF
[11] = CC50, parallel to HCMV AD169 assay

## Nc1nc2c(ncn2COCCO)c(=O)[nH]1 [Acyclovir, reference compound]
[1]
  EC50: > 150 µM
  EC90: > 150 µM
HSV-2, strain G; Human alphaherpesvirus 2, HFF
  EC50: 3.69 µM
HSV-2, strain G
  EC50: 2.88 µM
VZV, strain Ellen
  EC50: 5.14 µM
  EC90: 23.8 µM
In vitro; [6]
  CC50: > 150 µM
In vitro; [7]
  CC50: > 150 µM
In vitro; [8]
  CC50: > 150 µM
In vitro; [9]
  CC50: > 150 µM

## CCCCCCCCCCCCCCCC[N+](C)(C)C.[Br-] [CTAB, hexadecyltrimethylammonium bromide]
LD50 in rat
  LD50 as concentration: ~1.1 mM
[2]
  LD50: 410 mg/kg

## Nc1ccn(C[C@@H](CO)OCP(=O)(O)O)c(=O)n1 [Cidofovir, reference compound]
[1]
  EC50: 2.64 µM
  EC90: > 150 µM
In vitro; [6]
  CC50: > 150 µM

## NCCCN(CCCN)CCCCN(CCCN)CCCN [DAB-Am-4, Polypropylenimine tetramine dendrimer, generation 1,1,4-diaminobutane core, generation 1 solution]
HCMV, strain AD169; [10]
  EC50: 0.51 µM
  EC90: 3.11 µM
HSV-1, strain E-377
  EC50: 0.48 µM
  EC90: 3.49 µM
[1]
  EC50: > 19 µM
  EC90: > 19 µM
Cell membrane
  permeation of cell membranes: permeate cell membranes when complexed with free DNA
[3]; [11]
  CC50: 15.4 µM
[3]; [6]
  CC50: 28.6 µM
[3]; [7]
  CC50: 38.1 µM

## NCCCN(CCCN)CCCN(CCCCN(CCCN(CCCN)CCCN)CCCN(CCCN)CCCN)CCCN(CCCN)CCCN [DAB-Am-8, Polypropylenimine octaamine Dendrimer, generation 2.0,1,4-diaminobutane core]
HCMV, strain AD169; [10]
  EC50: 0.08 µM
  EC90: > 3.8 µM
HSV-1, strain E-377
  EC50: 0.09 µM
  EC90: > 3.8 µM
[1]
  EC50: 0.1 µM
  EC90: > 3.8 µM
Cell membrane
  permeation of cell membranes: permeate cell membranes when complexed with free DNA
[3]; [11]
  CC50: 4.41 µM
[3]; [6]
  CC50: 9.32 µM
[3]; [7]
  CC50: 13 µM

## CCCCCCCCCCCC[N+](C)(C)C.[Br-] [DTAB, dodecyltrimethylammonium bromide]
LD50 in rat
  LD50 as concentration: 0.6 to 3.2 mM
[2]
  LD50: 200 to 1000 mg/kg

## Nc1nc(O)c2ncn(COC(CO)CO)c2n1 [Ganciclovir, reference compound]
HCMV, strain AD169; [10]
  EC50: 0.35 µM
HCMV, strain AD169
  EC50: 0.3 µM
In vitro; [11]
  CC50: > 150 µM

## N.N.N.N.N.N.[Cl-].[Cl-].[Cl-].[Co+3] [Hexaamminecobalt(III) chloride]
DNA [4]; 2-100 mM
  DNA condensed to (internal experimental observations): 28 Å
DNA [5]
  dint (DNA condensation observed experimentally): 27.8-28.2 Å

## [Cl-].[Cl-].[Mg+2] [MgCl2]
Phage λ; 5 mM MgCl2 Tris-buffer
  DNA transition temperature T*: ~22 °C
Phage λ; 20 mM MgCl2 Tris-buffer
  DNA transition temperature T*: ~37 °C
Phage λ; 50 mM MgCl2 Tris-buffer
  DNA transition temperature T*: ~35 °C

## NCCNC(=O)CCN(CCC(=O)NCCN)CCN(CCC(=O)NCCN)CCC(=O)NCCN [PAMAM Dendrimer G0, PAMAM dendrimer, ethylenediamine core, generation 0.0 solution]
HCMV, strain AD169; [10]
  EC50: > 0.6 µM
  EC90: > 0.6 µM
HSV-1, strain E-377
  EC50: 0.29 µM
  EC90: > 3 µM
Cell membrane; compound alone, previously shown
  permeation of the cell membrane: permeate the cell membrane
HSV-2, strain G; Human alphaherpesvirus 2, HFF
  EC50: 0.09 µM
HSV-2, strain G; Human alphaherpesvirus 2, HFF, reduces viral replication by 90%
  EC90: > 3 µM
VZV, strain Ellen
  EC50: > 0.6 µM
  EC90: > 0.6 µM
DNA [4]; 0.15-2.50 mM
  dint, internal observations: 32-35.2 Å
DNA [5]
  dint (DNA condensation observed experimentally): 31 Å
[3]; [11]
  CC50: 1.39 µM
[3]; [7]
  CC50: 3.79 µM
[3]; [8]
  CC50: 4.77 µM
[3]; [9]
  CC50: 1.17 µM

## Cl.Cl.Cl.NCCCCNCCCN [Spermidine trihydrochloride]
DNA [5]
  dint (DNA condensation observed experimentally): 28.8-29.7 Å

## CCCCCCCCCCCCCC[N+](C)(C)C.[Br-] [TTAB, myristyltrimethylammonium bromide]
LD50 in rat
  LD50 as concentration: ~11.6 mM
[2]
  LD50: 3900 mg/kg

## Cl.Cl.Cl.Cl.NCCCNCCCCNCCCN [spermine tetrahydrochloride]
DNA [4]; 0.5-100 mM
  dint, internal experimental observations: 28.2-29.4 Å
Phage λ; WT DNA length phage λ, 10 mM MgCl2 Tris-buffer, 1 mM spermine (4+), 20-40° C.
  intracapsid DNA transition (DNA diffraction peak area vs temperature): no abrupt DNA transition is observed
DNA [5]
  dint (DNA condensation observed experimentally): 28 Å

## Arg4+: poly-L-arginine peptide (SEQ ID NO: 21), Charge=+4 (RRRR; Synthetic Arg4+)
DNA [4]; 1-2.5 mM
  dint, internal observations: 29.7-30.3 Å
DNA [5]
  dint (DNA condensation observed experimentally): 29.8 Å

## Tetralysine (KKKK; Synthetic Lys4+)
DNA [5]
  dint (DNA condensation observed experimentally): 34.9 Å

## Tetraornithine
DNA [5]
  dint (DNA condensation observed experimentally): 32.2 Å

## Trilysine
DNA [5]
  dint (DNA condensation observed experimentally): 38.9 Å

## Triornithine
DNA [5]
  dint (DNA condensation observed experimentally): 35.6 Å
